The target in one test is T1, EcUbiX (Escherichia coli, UniProt P0AG03).
T1 construct: gene ubiX
T1 sequence (P0AG03 1-189): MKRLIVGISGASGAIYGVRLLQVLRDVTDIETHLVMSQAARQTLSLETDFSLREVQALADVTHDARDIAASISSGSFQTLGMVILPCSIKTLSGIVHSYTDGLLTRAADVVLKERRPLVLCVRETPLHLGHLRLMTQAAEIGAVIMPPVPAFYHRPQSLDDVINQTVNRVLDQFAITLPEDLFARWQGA
The test can be described thus: UV-Vis single turnover. In kind it is biochemical.

The target of test [1] is T2, AnUbiX (Aspergillus niger, UniProt A3F715).
T2 construct: gene PAD1
T2 sequence (A3F715 1-227): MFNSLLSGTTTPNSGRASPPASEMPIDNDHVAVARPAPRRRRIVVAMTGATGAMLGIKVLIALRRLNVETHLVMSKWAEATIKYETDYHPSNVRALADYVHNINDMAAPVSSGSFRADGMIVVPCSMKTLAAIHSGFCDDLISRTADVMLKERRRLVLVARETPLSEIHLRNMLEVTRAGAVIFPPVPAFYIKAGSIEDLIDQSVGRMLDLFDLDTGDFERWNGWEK
The test can be described thus: crystal structure. The format is binding.

Test [2] has as its target T2, AnUbiX. The test can be described thus: UV-Vis single turnover. In kind it is biochemical.

Three compounds from PMC6541611, “The UbiX flavin prenyltransferase reaction mechanism resembles class I terpene cyclase chemistry” (Nature Communications, 2019) can be followed below.

Where two headings read alike, the source gives them in different places.

Take `CC(C)=CCOP(=O)(O)OP(=O)(O)O` [DMAPP]: at EcUbiX (2 mM DMAPP, FMNH2, pH 8, prFMN formed), the UV-Vis single turnover entry is on record as “is only able to catalyse DMAPP-specific prFMNH2 formation under the conditions tested”. Further, the crystal structure entry at AnUbiX [1] (co-purified, no exogenous DMAPP added, with oxidised FMN, pH 6.2) is “electron density directly located above the oxidised FMN that corresponds to a bound DMAPP”. On to `CC(C)=CCOP(=O)(O)O` [DMAP], for which the UV-Vis single turnover result at EcUbiX is “AnUbiX and EcUbiX appear to catalyse the prenyltransferase step with DMAP”; on AnUbiX [2] it was “Crucially, DMAP incubation does affect the resulting FMN spectrum”. As for `Cc1cc2nc3c(=O)[nH]c(=O)nc-3n(C[C@H](O)[C@H](O)[C@H](O)COP(=O)(O)O)c2cc1C` [FMN], the crystal structure result at AnUbiX [1] is “The crystal structure of AnUbiX in complex with FMN and DMAPP”.
